Measured values taken from patent US11046694B2, “Compounds and methods for treating bacterial infections” (Entasis Therapeutics, Inc., priority 2018, dated 2021).
In brackets after ≈: the same amount, converted by molar mass. Counter-ions that a name gives are not always drawn.

Tests used:
A. baumannii (ARC3495) = test: MIC against A. baumannii; conditions: Acinetobacter baumannii, read-out: A. baumannii MIC (ARC3495) (mg/L)
P. aeruginosa PBP1a = P. aeruginosa PBP1a (Pseudomonas aeruginosa, UniProt Q07806); type: biochemical; conditions: P. aeruginosa PBP1a 60 nM, BOCILLIN FL 30 nM, pH 7.0
Sequence of P. aeruginosa PBP1a (Q07806 whole entry): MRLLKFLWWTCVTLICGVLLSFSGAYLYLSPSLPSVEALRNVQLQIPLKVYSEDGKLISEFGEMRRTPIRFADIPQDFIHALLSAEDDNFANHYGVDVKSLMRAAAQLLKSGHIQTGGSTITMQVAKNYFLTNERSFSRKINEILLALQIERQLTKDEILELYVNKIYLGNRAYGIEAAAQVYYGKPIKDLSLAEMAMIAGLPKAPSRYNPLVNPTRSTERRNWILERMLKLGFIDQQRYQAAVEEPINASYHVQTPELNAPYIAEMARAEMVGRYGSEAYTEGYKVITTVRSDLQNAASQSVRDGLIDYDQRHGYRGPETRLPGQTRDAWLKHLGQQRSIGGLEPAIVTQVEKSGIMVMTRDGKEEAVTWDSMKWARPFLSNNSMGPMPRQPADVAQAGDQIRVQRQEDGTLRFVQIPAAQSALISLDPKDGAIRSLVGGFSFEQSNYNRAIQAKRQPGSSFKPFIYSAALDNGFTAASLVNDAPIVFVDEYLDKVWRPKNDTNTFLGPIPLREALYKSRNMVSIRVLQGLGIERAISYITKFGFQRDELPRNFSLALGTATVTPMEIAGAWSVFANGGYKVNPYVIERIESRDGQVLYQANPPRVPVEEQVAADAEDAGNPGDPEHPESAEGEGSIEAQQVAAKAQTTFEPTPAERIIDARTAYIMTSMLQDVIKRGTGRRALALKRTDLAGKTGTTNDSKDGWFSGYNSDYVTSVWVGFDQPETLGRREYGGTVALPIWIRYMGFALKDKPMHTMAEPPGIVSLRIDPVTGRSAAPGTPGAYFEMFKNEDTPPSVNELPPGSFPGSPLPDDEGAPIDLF

P. aeruginosa PBP2 = target: T1, P. aeruginosa PBP2 (Pseudomonas aeruginosa, UniProt Q9X6V3); type: biochemical; conditions: P. aeruginosa PBP2 300 nM, BOCILLIN FL 30 nM, pH 6.2
T1 sequence (Q9X6V3 1-646): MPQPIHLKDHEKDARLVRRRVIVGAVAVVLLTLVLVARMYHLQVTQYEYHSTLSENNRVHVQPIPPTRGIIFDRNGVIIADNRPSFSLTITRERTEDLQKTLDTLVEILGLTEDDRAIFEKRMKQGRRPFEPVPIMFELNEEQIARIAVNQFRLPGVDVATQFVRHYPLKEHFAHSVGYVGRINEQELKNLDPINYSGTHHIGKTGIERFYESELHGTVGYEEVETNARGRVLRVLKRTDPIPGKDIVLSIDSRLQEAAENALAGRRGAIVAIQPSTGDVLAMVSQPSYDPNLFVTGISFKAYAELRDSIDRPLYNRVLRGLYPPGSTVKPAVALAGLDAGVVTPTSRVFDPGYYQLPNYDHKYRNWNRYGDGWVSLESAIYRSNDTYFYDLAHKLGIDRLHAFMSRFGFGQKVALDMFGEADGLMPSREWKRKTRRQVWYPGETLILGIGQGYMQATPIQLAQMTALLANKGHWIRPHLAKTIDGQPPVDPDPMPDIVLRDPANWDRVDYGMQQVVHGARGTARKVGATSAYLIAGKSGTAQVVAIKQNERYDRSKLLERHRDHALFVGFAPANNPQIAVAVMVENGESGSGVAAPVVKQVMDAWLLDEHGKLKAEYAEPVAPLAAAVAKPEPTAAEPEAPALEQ

E. coli (ATCC25922) = test: MIC against E. coli; conditions: Escherichia coli, ATCC25922, read-out: E. coli MIC (ATCC25922) (mg/L)
P. aeruginosa WT (PAO1) = test: MIC, CLSI broth microdilution, P. aeruginosa; type: cell-based; conditions: Pseudomonas aeruginosa, PAO1; CLSI broth microdilution; read-out: P. aeruginosa WT (PAO1) MIC
P. aeruginosa PBP3 = P. aeruginosa PBP3 (Pseudomonas aeruginosa, UniProt G3XD46); type: biochemical; conditions: P. aeruginosa PBP3 60 nM, BOCILLIN FL 30 nM, pH 7.0
Sequence of P. aeruginosa PBP3 (G3XD46 whole entry): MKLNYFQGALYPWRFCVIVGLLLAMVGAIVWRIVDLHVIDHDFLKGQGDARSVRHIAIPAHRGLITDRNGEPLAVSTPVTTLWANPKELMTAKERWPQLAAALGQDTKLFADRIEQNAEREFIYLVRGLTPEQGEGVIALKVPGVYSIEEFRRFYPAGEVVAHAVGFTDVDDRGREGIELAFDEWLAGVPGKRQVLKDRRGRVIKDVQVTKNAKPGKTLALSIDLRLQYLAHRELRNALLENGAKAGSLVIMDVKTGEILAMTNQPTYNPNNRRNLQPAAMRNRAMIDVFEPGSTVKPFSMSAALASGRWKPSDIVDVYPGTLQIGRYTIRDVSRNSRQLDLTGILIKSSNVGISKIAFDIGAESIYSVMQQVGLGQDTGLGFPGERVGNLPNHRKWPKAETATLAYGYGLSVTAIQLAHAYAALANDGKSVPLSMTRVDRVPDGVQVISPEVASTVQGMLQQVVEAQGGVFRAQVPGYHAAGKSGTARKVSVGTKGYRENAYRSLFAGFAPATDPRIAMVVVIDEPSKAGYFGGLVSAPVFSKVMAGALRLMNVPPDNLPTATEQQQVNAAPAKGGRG

[1] = tested on: K. pneumoniae (ATCC700603); test: MIC against K. pneumoniae; conditions: Klebsiella pneumoniae, ATCC700603, read-out: K. pneumoniae MIC (ATCC700603)

| Compound | MIC (A. baumannii (ARC3495)) | PBP1a acylation rate, k(on) (M^−1 · s^−1) (P. aeruginosa PBP1a) | PBP2 acylation rate, k(on) (M^−1 · s^−1) (P. aeruginosa PBP2) | MIC (E. coli (ATCC25922)) | MIC (P. aeruginosa WT (PAO1)) | PBP3 acylation rate, k(on) (M^−1 · s^−1) (P. aeruginosa PBP3) | MIC [1] |
| --- | --- | --- | --- | --- | --- | --- | --- |
| CCN/C(=N\O)[C@@H]1c2c(cnn2C)[C@@H]2CN1C(=O)N2OS(=O)(=O)O (racemic) [Example 5] | > 16 mg/L | ** (** represents a k(on) of 100 to 10,000 M^−1 · s^−1) | * (* represents a k(on) < 100 M^−1 · s^−1) | < 8 mg/L | > 16 µg/mL | ** (** represents a k(on) of 100 to 10,000 M^−1 · s^−1) | > 16 µg/mL |
| CN/C(=N\OCCCCN)[C@@H]1c2c(cnn2C)[C@@H]2CN1C(=O)N2OS(=O)(=O)O (racemic) [Example 6] | > 16 mg/L | * (* represents a k(on) < 100 M^−1 · s^−1) | * (* represents a k(on) < 100 M^−1 · s^−1) | 8 to 16 mg/L (≈ 19.2 to 38.3 µM) | 8 to 16 µg/mL (≈ 19.2 to 38.3 µM) | ** (** represents a k(on) of 100 to 10,000 M^−1 · s^−1) | > 16 µg/mL |
| CN/C(=N\OCCN)[C@@H]1c2c(cnn2C)[C@@H]2CN1C(=O)N2OS(=O)(=O)O (racemic) [Example 7] | > 16 mg/L | * (* represents a k(on) < 100 M^−1 · s^−1) | * (* represents a k(on) < 100 M^−1 · s^−1) | 8 to 16 mg/L (≈ 20.5 to 41.1 µM) | 8 to 16 µg/mL (≈ 20.5 to 41.1 µM) | ** (** represents a k(on) of 100 to 10,000 M^−1 · s^−1) | 8 to 16 µg/mL (≈ 20.5 to 41.1 µM) |
| Cn1ncc2c1[C@@H](/C(=N/O)NCCCCN)N1C[C@@H]2N(OS(=O)(=O)O)C1=O (racemic) [Example 8] | > 16 mg/L | * (* represents a k(on) < 100 M^−1 · s^−1) | * (* represents a k(on) < 100 M^−1 · s^−1) | < 8 mg/L | > 16 µg/mL | * (* represents a k(on) < 100 M^−1 · s^−1) | > 16 µg/mL |
| CN/C(=N\OC(=O)NCc1cn(C)[n+](C)c1)[C@@H]1c2c(cnn2C)[C@@H]2CN1C(=O)N2OS(=O)(=O)O [Example 54, 1,2-dimethyl-4-((Z)-3-((4R,8S)-1-methyl-6-oxo-5-(sulfooxy)-4,5,6,8-tetrahydro-1H-4,7-methanopyrazolo[3,4-e][1,3]diazepin-8-yl)-6-oxo-5-oxa-2,4,7-triazaoct-3-en-8-yl)-1H-pyrazol-2-ium] | > 16 mg/L | * (* represents a k(on) < 100 M^−1 · s^−1) |  | < 8 mg/L | 8 to 16 µg/mL | *** (*** represents a k(on) > 10,000 M^−1 · s^−1) | > 16 µg/mL |
| CN/C(=N\OCC(N)=O)[C@@H]1c2c(cnn2C)[C@@H]2CN1C(=O)N2OS(=O)(=O)O [Example 57, pyridium (4R,8S)-8-((Z)—N′-(2-amino-2-oxoethoxy)-N-methylcarbamimidoyl)-1-methyl-6-oxo-4,8-dihydro-1H-4,7-methanopyrazolo[3,4-e][1,3]diazepin-5(6H)-yl hydrogen sulfate] | 8 to 16 mg/L | ** (** represents a k(on) of 100 to 10,000 M^−1 · s^−1) |  | 8 to 16 mg/L | < 8 µg/mL | *** (*** represents a k(on) > 10,000 M^−1 · s^−1) | 8 to 16 µg/mL |
| CN/C(=N\OCC(=O)O)[C@@H]1c2c(cnn2C)[C@@H]2CN1C(=O)N2OS(=O)(=O)O [Example 62, 2-((((Z)-((4R,8S)-1-methyl-6-oxo-5-(sulfooxy)-4,5,6,8-tetrahydro-1H-4,7-methanopyrazolo[3,4-e][1,3]diazepin-8-yl)(methylamino)methylene)amino)oxy)acetic acid] | > 16 mg/L | ** (** represents a k(on) of 100 to 10,000 M^−1 · s^−1) |  | 8 to 16 mg/L (≈ 19.8 to 39.6 µM) | < 8 µg/mL | *** (*** represents a k(on) > 10,000 M^−1 · s^−1) | 8 to 16 µg/mL (≈ 19.8 to 39.6 µM) |
| CN/C(=N\OC(C)(C)C(=O)O)[C@@H]1c2c(cnn2C)[C@@H]2CN1C(=O)N2OS(=O)(=O)O [Example 63] | > 16 mg/L | ** (** represents a k(on) of 100 to 10,000 M^−1 · s^−1) |  | < 8 mg/L | 8 to 16 µg/mL (≈ 18.5 to 37 µM) | *** (*** represents a k(on) > 10,000 M^−1 · s^−1) | > 16 µg/mL |
| CN1C(=O)CON=C1[C@@H]1c2c(cnn2C)[C@@H]2CN1C(=O)N2OS(=O)(=O)O [Example 64, ((4R,8S)-1-methyl-8-(4-methyl-5-oxo-5,6-dihydro-4H-1,2,4-oxadiazin-3-yl)-6-oxo-4,8-dihydro-1H-4,7-methanopyrazolo[3,4-e][1,3]diazepin-5(6H)-yl) hydrogen sulfate] | > 16 mg/L | ** (** represents a k(on) of 100 to 10,000 M^−1 · s^−1) |  | < 8 mg/L | > 16 µg/mL | ** (** represents a k(on) of 100 to 10,000 M^−1 · s^−1) | > 16 µg/mL |
| CN1C(=O)C(C)(C)ON=C1[C@@H]1c2c(cnn2C)[C@@H]2CN1C(=O)N2OS(=O)(=O)O [Example 65] | > 16 mg/L | ** (** represents a k(on) of 100 to 10,000 M^−1 · s^−1) |  | < 8 mg/L | > 16 µg/mL | ** (** represents a k(on) of 100 to 10,000 M^−1 · s^−1) | > 16 µg/mL |
| CN/C(=N\OC(C)=O)[C@@H]1c2c(cnn2C)[C@@H]2CN1C(=O)N2OS(=O)(=O)O [Example 69, pyridium (4R,8S)-8-((Z)—N′-acetoxy-N-methylcarbamimidoyl)-1-methyl-6-oxo-4,8-dihydro-1H-4,7-methanopyrazolo[3,4-e][1,3]diazepin-5(6H)-hydrogen sulfate] | > 16 mg/L | ** (** represents a k(on) of 100 to 10,000 M^−1 · s^−1) |  | 8 to 16 mg/L | > 16 µg/mL | *** (*** represents a k(on) > 10,000 M^−1 · s^−1) | 8 to 16 µg/mL |
| CN/C(=N\OCC(=O)NOS(=O)(=O)O)[C@@H]1c2c(cnn2C)[C@@H]2CN1C(=O)N2OS(=O)(=O)O [Example 73, pyridium ((2-((((Z)-((4R,8S)-1-methyl-6-oxo-5-(sulfooxy)-4,5,6,8-tetrahydro-1H-4,7-methanopyrazolo[3,4-e][1,3]diazepin-8-yl)(methylamino)methylene)amino)oxy)acetamido)oxy)sulfonic acid] | > 16 mg/L | ** (** represents a k(on) of 100 to 10,000 M^−1 · s^−1) |  | 8 to 16 mg/L (≈ 16 to 32 µM) | 8 to 16 µg/mL (≈ 16 to 32 µM) | *** (*** represents a k(on) > 10,000 M^−1 · s^−1) | 8 to 16 µg/mL (≈ 16 to 32 µM) |
